Where two headings read alike, the source gives them in different places.
Columns and labels:
HCT116 cells [1] = assay: MTT assay, HCT116; format: cell-based
Experimental: (§1) AsPC-1 tumor cells were cultured with T cells at a 1:5 ratio for 7 days in the presence of MEDI-565 or Cont BiTE (100 ng/mL). On day 7, floating cells were discarded and only adherent AsPC-1 cells were harvested with 0.05% trypsin/EDTA and washed with PBS three times. 1×10^4 AsPC-1 tumor cells were added to each well of 96 well flat bottom plates in 200 μL of complete RPMI1640 medium. The cells were allowed to adhere to the plates overnight at 37° C. (day 0) and were further incubated for 1, 2, 4 or 7 days. 20 μL of 10×MTT (3-[4,5-dimethylthiazol-2-yl]-2,5-diphenyl-tetrazolium bromide, 5 mg/mL) solution was added to each well, and incubated at 37° C. for 2 hr. The adherent cells were lysed with 150 μL of dimethyl sulfoxide (DMSO) and the optical density (OD) at 550 nm was measured.
(§2) Colorectal cancer cell lines were incubated in 96-well flat-bottomed plates at 5,000 cells per well in 200 μL of complete RPMI1640 medium. The cells were allowed to adhere to the plates overnight at 37° C. (day 0). […] Then 20 μL of 10×MTT solution was added to each well and incubated at 37° C. for 2 hr. The adherent cells were lysed with 150 μL of DMSO, and then optical density (OD) at 562 nm was measured. DMSO or culture medium was used as a control.
(§3) MTT assay was performed at each time point.

HT29 cells = assay: MTT assay, HT29; format: cell-based
Experimental: as §1, §2, §3

CaCO2 cells = assay: MTT assay, CaCO2; format: cell-based; conditions: for IC50: Homo sapiens, Caco-2, 72 h
Experimental: as §1, §2, §3
(§4) An MTT assay was performed after 72 hr incubation. After cell lysis with DMSO, the optical density (OD) at 562 nm was measured.

CRC explants = assay: MTT assay, CRC explants; format: cell-based; conditions: 72 hr
Experimental: as §1
as §2, with “The” for “Colorectal cancer cell lines were incubated in 96-well flat-bottomed plates at 5,000 cells per well in 200 μL of complete RPMI1640 medium. The”
as §4

HCT116 cells [2] = assay: Flow-based cytotoxicity assay (annexin V), HCT116; format: cell-based; conditions: 3 days, 0.2-20 μM
Experimental: After 3 days incubation, all cells were harvested with 0.05% trypsin/EDTA and spun down by centrifugation. Cells were labeled with biotin-conjugated Annexin V, and then stained with 7-AAD and Streptavidin-APC. Samples were acquired by FACSCalibur machine (BD Bioscience) and analyzed with CellQuest software. Cells were analyzed for expression of Annexin V as a marker of apoptosis.
Annexin V may be used as a marker for apoptosis and other forms of cell death. […] After 3 days of incubation, all cells were harvested with 0.05% trypsin/EDTA, labeled with biotin-conjugated Annexin V, and then stained with 7-AAD and streptavidin-APC. Samples were acquired by FACSCalibur, and percentages of annexin V-positive cells were analyzed and plotted as shown in FIG. 11. Cells were analyzed for expression of Annexin V as a marker of apoptosis.

Dvl-2 = assay: Western blot of cytosolic Dvl-2 in colorectal cancer cells; format: cell-based
Experimental: (§5) CRC explants and colorectal cancer cell lines were cultured in 6-well plates. […] After washing cells with PBS three times, hypotonic lysis buffer consist of 10 mM Tris-HCl, pH7.4 and 0.2 mM MgCl2, supplemented with 1× Halt Protease and Phosphatase Inhibitor Cocktail (Thermo Scientific Pierce Protein Research Products, Rockford, Ill.) were applied to make cell lyates for Western Blot.
(§6) After washing cells with PBS, cell lysates were made with hypotonic lysis buffer.

β-catenin = assay: Western blot of cytosolic β-catenin in colorectal cancer cells; format: cell-based
Experimental: as §5, §6

HCT116 tumors = assay: In vivo anti-tumor effect, HCT116 tumors; parameters: species or system NOD/SCID mice
Experimental: (§7) HCT116 colon cancer cells were harvested from flasks with 0.05% Trypsin/EDTA, washed with PBS, and resuspended with Hanks buffered solution at 5×10^6 cells/100 μL concentration. CRC explants (CRC039) cultured in vitro were harvested with the same procedure, and mixed with equal volume of Matrigel to make 1×10^6 cells/100 μL concentration. A hundred μL of cell suspension was inoculated to the flank of NOD/SCID mice 4 days before the start of treatment. […] Tumor size was measured 3 times a week until mice were sacrificed.
(§8) HCT116 colon cancer cells were harvested from flasks with 0.05% Trypsin/EDTA and resuspended with Hanks buffered solution at 5×10^6 cells/100 μL concentration. CRC explants (CRC039) cultured in vitro were harvested with the same procedure and mixed with equal volume of Matrigel to make 1×10^6 cells/100 μL concentration. The cell suspension (100 μL) was inoculated into the flank of NOD/SCID mice 4 days before the start of treatment. […] Initially, 2 weeks of treatment was planned for both HCT116 and CRC039. However, treatment was extended to 3 weeks for CRC039 cells because the […] grew much slower than the HCT116 cell line. Tumor size was measured 3 times a week until mice were euthanized.

CRC039 tumors = assay: In vivo anti-tumor effect, CRC039 explant tumors; parameters: species or system NOD/SCID mice; conditions: 10, 100 or 200 mg/kg gavage, 6 days per week, 3 weeks
Experimental: as §7, §8

[3] = Side effects during in vivo treatment; parameters: species or system NOD/SCID mice; conditions: up to 200 mg/kg gavage, 2-3 weeks
Experimental: as §8

[4] = CRC057 and HCT116, 1, 5, 10 μM, 18 hr

In the case of O=C(Nc1ccc([N+](=O)[O-])cc1Cl)c1cc(Cl)ccc1O [niclosamide], the “cytotoxic effect compared with 10 μM oxaliplatin” value (HCT116 cells [1]; 2 μM, 72 hr) is reported as “stronger cytotoxic effect”, the “proliferation (MTT, OD 562 nm), sensitivity among three cell lines” value (HCT116 cells [1]; 0.4, 2, 10 μM, 72 hr) is reported as “most sensitive” and the “% proliferation over time” value (HCT116 cells [1]; 0.4, 2, 10 μM, 24-96 hr) is reported as “sensitive”. For the same compound, the “concentration at which cells were killed over time” value (HCT116 cells [1]; 24-96 hr) was 0.4 µM, the “concentration showing anti-proliferation effect” value (HT29 cells; 0.4, 2, 10 μM tested, 72 hr) was 10 µM and the “% proliferation over time” value (HT29 cells; 0.4, 2, 10 μM, 24-96 hr) was “insensitive”. For the same compound, the “cytotoxic effect compared with 10 μM oxaliplatin” value (CaCO2 cells; 2 μM, 72 hr) was “stronger cytotoxic effect”, the “proliferation (MTT, OD 562 nm)” value (CaCO2 cells; 0.4, 2, 10 μM, 72 hr) was “less proliferation” and the “% proliferation over time” value (CaCO2 cells; 0.4, 2, 10 μM, 24-96 hr) was “sensitive”. The IC50 (CaCO2 cells; read-out: IC50 of niclosamide (MTT)) was 1000 nM, the IC50 (CaCO2 cells; read-out: IC50 of niclosamide (MTT) with oxaliplatin) was 500 nM and the “killing of CRC020 explant cells” value (CRC explants; 5 μM) was “killed significantly”. For the same compound, the “cytotoxicity (MTT, OD 562 nm) in 8 CRC explants” value (CRC explants; 0.4, 2, 10 μM) was “cytotoxic effects”, the “concentration with steep increase of annexin V-positive cells” value (HCT116 cells [2]) was 0.2 µM and the “cytosolic Dvl-2 expression” value (Dvl-2; [4]) was “downregulated”. For the same compound, the “cytosolic Dvl-2 expression” value (Dvl-2; HT29 cells) was “milder change”, the “cytosolic β-catenin expression” value (β-catenin; [4]) was “downregulated” and the “cytosolic β-catenin expression” value (β-catenin; HT29 cells) was “milder change”. The “tumor volume vs control” value (HCT116 tumors; 200 mg/kg gavage, after two weeks) was “less than half a volume”, the tumor growth (HCT116 tumors; 10, 100 or 200 mg/kg gavage, 6 days per week, 2 weeks) was “significantly inhibited the growth” and the tumor growth (CRC039 tumors) was “significantly inhibited the growth”. The “side effects during treatment” value [3] was “no obvious side effect”.
